In the assay the test system is T1, TREK-1.
T1 construct: expressed in transfected cells; host or cells: CHO cells, transient transfection
The experiment in a line: Outside-out and inside-out patch recordings of TREK-1. Format: cell-based, human. As to conditions: +80 mV. The procedure:
All electrophysiological recordings were obtained using patch-clamp recordings in two different configurations: (1) whole cell for macroscopic current dose–response curves; and (2) outside-out and inside-out for macroscopic currents recordings.
All patch-clamp recordings were conducted 36–96 h after transfection with an Axopatch-200B amplifier (Molecular Devices) at room temperature (23–25 °C). The microelectrodes fashioned from 1.5 mm thin-walled borosilicate glass with filament were pulled from Flaming/Brown type micropipette puller (P-97; SUTTER INSTRUMENT) with the resistances of 3–7 MΩ (whole cell) or 7–15 MΩ (outside-out) when filled with a solution containing (in mM): 140 KCl, 2 MgCl2, 10 EGTA, 1 CaCl2, 10 HEPES (pH 7.3, adjusted with KOH). External solution contained (in mM): 150 NaCl, 5 KCl, 0.5 CaCl2, 1.2 MgCl2, 10 HEPES (pH 7.3, adjusted with NaOH). The current signals were filtered at 1 kHz and digitized at a 10 kHz sampling frequency by using DigiData 1440 A.
In the outside-out patch recordings and inside-out patch recordings, the inhibitor (10–30 μM TKDC) was applied via dish perfusion. The bath level was kept as low as possible to reduce noise. Currents were recorded at a pipette potential of + 80 mV. […]
mechanical force, lipids, or pH change)? A comprehensive survey would be nice, but even evaluating block +/- one activating stimulus would be a very useful piece of information to know for those interested in using this drug.
Response: We have tested the TKDC-induced inhibition of TREK-1 in addition to the mechanical force using outside-out patch. 10 μM TKDC was applied via dish perfusion. The bath level was kept as low as possible to reduce noise. Currents were recorded at a pipette potential of +80 mV. Mechanical stimulation (-7 mmHg) for patches was applied by suction for the outside-out configuration using a pressure monitor (PM 015D, World Precision Instruments) controlled by clampex 10.6 software. As […]
The main aim of this work is to reveal an allosteric ligand-binding site in the extracellular cap of K2P channels. […]

As to `CS(=O)(=O)N(CC(=O)N1CCc2ccccc2C1)c1ccc(Cl)cc1` [TKDC, N-(4-cholorphenyl)-N-(2-(3,4-dihydrosioquinolin-2(1H)-yl)-2-oxoethyl)methanesulfonamide], the “inhibition of TREK-1, outside-out recording” value (application to the extracellular face, 10 and 30 μM) is recorded as “consistently inhibited TREK-1”. For the same compound, the “inhibition of TREK-1, inside-out recording” value (application to the intracellular side, 10 and 30 μM) was “did not significantly inhibit TREK-1 activity”. Also, the “effect on activation of TREK-1 by mechanical force” value (outside-out patch, 10 μM, -7 mmHg) is “suppressed the activation of TREK-1 by mechanical force”.

Values taken from publication PMC5575254, “An allosteric ligand-binding site in the extracellular cap of K2P channels” (Nature Communications, 2017).
